Measurements: US12193994B2, “Combination of a cell therapy and a gamma secretase inhibitor” (Juno Therapeutics, Inc., priority 2017, dated 2025)

Key:
[1] = system: OPM2 or RPMI-8226 target cells; experiment: Cytokine production by anti-BCMA CAR-T cells co-cultured with target cells +/- LY3039478; format: cell-based, human; details: 24 hours co-culture, vs absence of LY3039478
Protocol: The production of cytokines by anti-BCMA CAR-T cells in the presence or absence of LY3039478 was assessed by monitoring cytokine levels in the supernatants of co-cultures of CAR-T cells with BCMA-expressing target cells. CAR-T cells generated as described in this Example above were cultured with either OPM2 or RPMI-8226 target cells in the absence of LY3039478 or in the presence of LY3039478 at concentrations of 0.1 nM, 1 nM, 10 nM, 100 nM, 1000 nM, 10000 nM or 100000 nM (the range covering the estimated human pharmacokinetic range is shown by the boxes in FIGS. 3A-3D). Culture supernatants were harvested after 24 hours, and IFNγ and IL-2 were measured from the culture supernatants.

MM1S cells = experiment: Serial restimulation of anti-BCMA CAR+ T cells with irradiated target cells: expansion and cytokines; format: cell-based, human; details: 0.001 μM and 1.0 μM
Source text: The ability of CAR T cells to expand ex vivo following repeated rounds of antigen stimulation can correlate with in vivo function and/or capacity of the cells to persist in in vivo (e.g., following administration and initial activation in response to encounter with antigen) (Zhao et al. (2015) Cancer Cell, 28:415-28). To assess the effect of the exemplary gamma secretase inhibitor on CAR-T cell activity after serial restimulation, anti-BCMA CAR+ T cells were generated as described above in Example 2, and irradiated BCMA-expressing target cells (MM1S cells) were added at an effector-to-target (E:T) ratio of 1:2 in the presence of LY3039478 at two different concentrations, either 0.001 μM (a concentration around the IC50) or a higher concentration of 1.0 μM (approximately 3 times Cmax), or with vehicle only control. The assay was performed on a composition of anti-BCMA CAR+ T cells generated from T cells derived from a healthy donor or from a donor with multiple myeloma. Every 3-4 days, CAR-expressing T cells were harvested, counted and re-plated at the initial seeding density with fresh media containing new irradiated target cells at the same E:T ratio in the presence or absence of the same concentration of LY3039478. A total of 3-5 rounds of stimulation were carried out during a 10-14 day culture period. Effects of the inhibitor on T cell function were assessed by monitoring the cell number (FIGS. 4A and 4B) or cytokine production in harvested supernatant (FIG. 5A and FIG. 5B) at each round of stimulation.
The production of cytokines by anti-BCMA CAR-T cells upon restimulation with antigen-expressing cells in the presence or absence of LY3039478 was assessed after the first round of re-plating at day 4. Culture supernatants were harvested 24 hours after re-plating, and IFN-gamma, IL-2 and TNF-alpha were measured from the culture supernatants.

multiple myeloma tumor = experiment: BCMA expression on tumors after oral LY3039478 in an alternative multiple myeloma tumor cell model; format: in vivo, mice; details: 0.1 mg/kg or 1 mg/kg, two oral administrations
Protocol: Specifically, NOD.Cg.PrkdescidIL2rgtm1 Wjl/SzJ (NSG) mice were injected subcutaneously (s.c.) with 1E+07 RPMI-8226 cells modified to express GFP and firefly luciferase (RPMI-8226 ffluc) and tumors were allowed to grow. […]
FIG. 6 depicts analysis of blood samples, taken at 0, 0.5, 2, 6, 18, 24, 36, and 48 hour post-administration, for plasma levels of the drug. […] Tumor cells at 2 hours, 24 hours or 48 hours after administration of LY3039478 or vehicle control in the study were assessed for surface expression of BCMA.

[2] = system: RPMI-8226, OPM2, or MM1.S; experiment: Re-challenge of chronically stimulated anti-BCMA CAR+ T cells with target cells +/- LY3039478; format: cell-based, human
Protocol: The effect of a gamma secretase inhibitor compound, LY3039478, on the cytotoxicity of anti-BCMA CAR+ T cells after long-term CAR-specific stimulation was assessed. Anti-BCMA CAR+ T cell compositions, generated as described in Example 2 containing anti-BCMA CAR-expressing CD4+ and CD8+ T cells, were incubated with 50 μg/mL BCMA-Fc conjugated beads for 7 days, under conditions designed to functionally exhaust the CAR T cells.
The CAR-T cells then were re-challenged with antigen-expressing target cells in the presence or absence of LY3039478. […] To assess cytolytic activity, the target cells were labeled with NucLight Red (NLR) to permit tracking by fluorescent microscopy. Killing activity was assessed by measuring the loss of viable target cells over time, as determined by loss of fluorescent signal over time by kinetic fluorescence microscopy (using the INCUCYTE® Live Cell Analysis System, Essen Bioscience). Target fluorescence was monitored over time and was normalized to target cell count.
A killing index was determined as the inverse of the area under the curve (AUC) for target fluorescence over time, and was normalized relative to DMSO vehicle control. […]

anti-BCMA CAR+ T cells = experiment: Anti-BCMA CAR+ T cells incubated with BCMA-containing beads +/- LY3039478 (Luminex); format: cell-based, human; details: different concentrations
Protocol: Various parameters indicative of T cell function were assessed following incubation of anti-BCMA CAR+ T cells with BCMA-containing beads in the presence of different concentrations of the gamma secretase inhibitor, LY3039478, or vehicle (DMSO). Supernatant was harvested after 24 hours and production of TNF-alpha, IFN-gamma and IL-2 were measured using a Luminex Multiplex Assay.

[3] = 24 hours after re-plating at day 4, both donors

Q: `C[C@H](NC(=O)CCC(F)(F)F)C(=O)N[C@@H]1C(=O)N(CCO)c2ncccc2-c2ccccc21` [LY3039478, 4,4,4-trifluoro-N-[(1S)-2-[[(7S)-5-(2-hydroxyethyl)-6-oxo-7H-pyrido[2,3-d][3]benzazepin-7-yl]amino]-1-methyl-2-oxo-ethyl]butanamide] was tested. Which “production of IFN-gamma in supernatant” value [1] did it give?
A: increased

Q: And the “production of IL-2 in supernatant” value [1]?
A: increased

Q: What about the “levels of IFN-gamma” value (MM1S cells; [3]) of the same molecule?
A: Increased levels

Q: And the “levels of IL-2” value (MM1S cells; [3])?
A: Increased levels

Q: What about the “levels of TNF-alpha” value (MM1S cells; [3]) of the same molecule?
A: Increased levels

Q: What about the “expansion of anti-BCMA CAR T cells” value (MM1S cells; E:T 1:2, 10-14 days, healthy and myeloma donor) of the same molecule?
A: increased expansion

Q: What about the “detrimental effects on CAR-T cell function” value (MM1S cells; serial restimulation) of the same molecule?
A: did not exhibit any detrimental effects

Q: What about the “BCMA expression on tumors” value (multiple myeloma tumor) of the same molecule?
A: Increased BCMA expression

Q: And the “function of chronically stimulated anti-BCMA CAR-expressing T cells to produce cytokines (TNF-alpha, IFN-gamma, IL-2)” value ([2]; 1 μM LY3039478, 24 hours, E:T 0.3:1 and 1:1)?
A: improved function

Q: What about the “cytolytic activity of chronically stimulated anti-BCMA CAR+ T cells” value ([2]; 1 μM LY3039478 vs DMSO, E:T 0.3:1) of the same molecule?
A: improved cytolytic activity

Q: What about the “CAR+ T cell count” value (anti-BCMA CAR+ T cells) of the same molecule?
A: did not impact

Q: What about the viability (anti-BCMA CAR+ T cells) of the same molecule?
A: did not impact

Q: What about the “cytokine production (TNF-alpha, IFN-gamma and IL-2)” value (anti-BCMA CAR+ T cells; 24 hours) of the same molecule?
A: did not impact
